# In ChEMBL document CHEMBL3885881, “DrugMatrix”:
# Organism: Rattus norvegicus
# Assay: DrugMatrix - Regimen: Daily Repeat
# Format: toxicity, organism-based, Sprague-Dawley
# Set-up: regimen Daily Repeat, gender Male, age 6-8 weeks
# Conditions: in vivo, po, route oral GAVAGE, vehicle .5 % CMC; for ABSOLUTE BASOPHIL / ABSOLUTE EOSINOPHIL / ABSOLUTE LYMPHOCYTE / ABSOLUTE MONOCYTE / ABSOLUTE SEGMENTED NEUTROPHIL / BASOPHIL / EOSINOPHIL / ERYTHROCYTE COUNT / HEMATOCRIT / HEMOGLOBIN / LEUKOCYTE COUNT / LYMPHOCYTE / MEAN CORPUSCULAR HEMOGLOBIN / MEAN CORPUSCULAR HEMOGLOBIN CONCENTRATION / MEAN CORPUSCULAR VOLUME / MONOCYTE / NEUTROPHIL / NUCLEATED RED BLOOD CELLS / PLATELET COUNT: tissue Blood; for ALANINE AMINOTRANSFERASE / ALBUMIN / ALKALINE PHOSPHATASE / ASPARTATE AMINOTRANSFERASE / BLOOD UREA NITROGEN / CARBON DIOXIDE / CHLORIDE / CHOLESTEROL / CREATINE PHOSPHOKINASE / CREATININE / GLUCOSE / LACTATE DEHYDROGENASE / LIPASE / PHOSPHORUS / POTASSIUM / SODIUM / TOTAL BILIRUBIN / TOTAL PROTEIN / URIC ACID: tissue Plasma
# [1] = 0 mg/kg, 72 h, dose level Control, time 3 day
# [2] = 0 mg/kg, 120 h, dose level Control, time 5 day
# [3] = 2000 mg/kg, 72 h, dose level High, time 3 day
structure (smiles),measurement,setting,value
O=C1Nc2ccc(Cl)cc2C(c2ccccc2Cl)=NC1O (centres undefined) [LORAZEPAM],ABSOLUTE BASOPHIL,[1],0 CELLS/uL
same,ABSOLUTE EOSINOPHIL,[1],171.33 CELLS/uL
same,ABSOLUTE LYMPHOCYTE,[1],13776.5 CELLS/uL
same,ABSOLUTE MONOCYTE,[1],180.83 CELLS/uL
same,ABSOLUTE SEGMENTED NEUTROPHIL,[1],1121.33 CELLS/uL
same,BASOPHIL,[1],0%
same,EOSINOPHIL,[1],1%
same,ERYTHROCYTE COUNT,[1],5.56 x10E6/uL
same,HEMATOCRIT,[1],34.75%
same,HEMOGLOBIN,[1],13.68 G/DL
same,LEUKOCYTE COUNT,[1],15.25 x10E3/uL
same,LYMPHOCYTE,[1],90.17%
same,MEAN CORPUSCULAR HEMOGLOBIN,[1],24.6 pg
same,MEAN CORPUSCULAR HEMOGLOBIN CONCENTRATION,[1],39.4 G/DL
same,MEAN CORPUSCULAR VOLUME,[1],62.48 fL
same,MONOCYTE,[1],1.17%
same,NEUTROPHIL,[1],7.67%
same,NUCLEATED RED BLOOD CELLS,[1],0 /100WBC
same,PLATELET COUNT,[1],1342 x10E3/uL
same,ALANINE AMINOTRANSFERASE,[1],49.67 u/L
same,ALBUMIN,[1],4.15 G/DL
same,ALKALINE PHOSPHATASE,[1],346.83 u/L
same,ASPARTATE AMINOTRANSFERASE,[1],108.17 u/L
same,BLOOD UREA NITROGEN,[1],17.33 mg/dL
same,CARBON DIOXIDE,[1],25 mmol/L
same,CHLORIDE,[1],100.83 MEQ/L
same,CHOLESTEROL,[1],66.83 mg/dL
same,CREATINE PHOSPHOKINASE,[1],788 u/L
same,CREATININE,[1],0.18 mg/dL
same,GLUCOSE,[1],151.67 mg/dL
same,LACTATE DEHYDROGENASE,[1],982.5 u/L
same,LIPASE,[1],10.33 u/L
same,PHOSPHORUS,[1],11.23 mg/dL
same,POTASSIUM,[1],6.37 MEQ/L
same,SODIUM,[1],141.02 MEQ/L
same,TOTAL BILIRUBIN,[1],0.18 mg/dL
same,TOTAL PROTEIN,[1],5.9 G/DL
same,URIC ACID,[1],1.8 mg/dL
same,ABSOLUTE BASOPHIL,[2],0 CELLS/uL
same,ABSOLUTE EOSINOPHIL,[2],69 CELLS/uL
same,ABSOLUTE LYMPHOCYTE,[2],13632.83 CELLS/uL
same,ABSOLUTE MONOCYTE,[2],139.83 CELLS/uL
same,ABSOLUTE SEGMENTED NEUTROPHIL,[2],1225 CELLS/uL
same,BASOPHIL,[2],0%
same,EOSINOPHIL,[2],0.33%
same,ERYTHROCYTE COUNT,[2],5.52 x10E6/uL
same,HEMATOCRIT,[2],33.98%
same,HEMOGLOBIN,[2],13.22 G/DL
same,LEUKOCYTE COUNT,[2],15.07 x10E3/uL
same,LYMPHOCYTE,[2],90.83%
same,MEAN CORPUSCULAR HEMOGLOBIN,[2],23.95 pg
same,MEAN CORPUSCULAR HEMOGLOBIN CONCENTRATION,[2],38.9 G/DL
same,MEAN CORPUSCULAR VOLUME,[2],61.53 fL
same,MONOCYTE,[2],0.83%
same,NEUTROPHIL,[2],8%
same,NUCLEATED RED BLOOD CELLS,[2],0 /100WBC
same,PLATELET COUNT,[2],1196 x10E3/uL
same,ALANINE AMINOTRANSFERASE,[2],49.17 u/L
same,ALBUMIN,[2],4.2 G/DL
same,ALKALINE PHOSPHATASE,[2],352.33 u/L
same,ASPARTATE AMINOTRANSFERASE,[2],89.67 u/L
same,BLOOD UREA NITROGEN,[2],18 mg/dL
same,CARBON DIOXIDE,[2],27.67 mmol/L
same,CHLORIDE,[2],101 MEQ/L
same,CHOLESTEROL,[2],72.83 mg/dL
same,CREATINE PHOSPHOKINASE,[2],417.5 u/L
same,CREATININE,[2],0.18 mg/dL
same,GLUCOSE,[2],150.5 mg/dL
same,LACTATE DEHYDROGENASE,[2],517.33 u/L
same,LIPASE,[2],9 u/L
same,PHOSPHORUS,[2],11.87 mg/dL
same,POTASSIUM,[2],6.57 MEQ/L
same,SODIUM,[2],143.62 MEQ/L
same,TOTAL BILIRUBIN,[2],0.2 mg/dL
same,TOTAL PROTEIN,[2],6.08 G/DL
same,URIC ACID,[2],1.45 mg/dL
same,ABSOLUTE BASOPHIL,[3],0 CELLS/uL
same,ABSOLUTE EOSINOPHIL,[3],93.33 CELLS/uL
same,ABSOLUTE LYMPHOCYTE,[3],11320 CELLS/uL
same,ABSOLUTE MONOCYTE,[3],259.33 CELLS/uL
same,ABSOLUTE SEGMENTED NEUTROPHIL,[3],1294 CELLS/uL
same,BASOPHIL,[3],0%
same,EOSINOPHIL,[3],0.67%
same,ERYTHROCYTE COUNT,[3],6.11 x10E6/uL
same,HEMATOCRIT,[3],38.6%
same,HEMOGLOBIN,[3],15.07 G/DL
same,LEUKOCYTE COUNT,[3],12.97 x10E3/uL
same,LYMPHOCYTE,[3],87.33%
same,MEAN CORPUSCULAR HEMOGLOBIN,[3],24.63 pg
same,MEAN CORPUSCULAR HEMOGLOBIN CONCENTRATION,[3],39.03 G/DL
same,MEAN CORPUSCULAR VOLUME,[3],63.1 fL
same,MONOCYTE,[3],2%
same,NEUTROPHIL,[3],10%
same,NUCLEATED RED BLOOD CELLS,[3],0 /100WBC
same,PLATELET COUNT,[3],1214.33 x10E3/uL
same,ALANINE AMINOTRANSFERASE,[3],72.67 u/L
same,ALBUMIN,[3],4.4 G/DL
same,ALKALINE PHOSPHATASE,[3],338 u/L
same,ASPARTATE AMINOTRANSFERASE,[3],105.33 u/L
same,BLOOD UREA NITROGEN,[3],24 mg/dL
same,CARBON DIOXIDE,[3],21.33 mmol/L
same,CHLORIDE,[3],99.33 MEQ/L
same,CHOLESTEROL,[3],119.67 mg/dL
same,CREATINE PHOSPHOKINASE,[3],966.67 u/L
same,CREATININE,[3],0.22 mg/dL
same,GLUCOSE,[3],161.67 mg/dL
same,LACTATE DEHYDROGENASE,[3],346.33 u/L
same,LIPASE,[3],16.67 u/L
same,PHOSPHORUS,[3],10.23 mg/dL
same,POTASSIUM,[3],5.79 MEQ/L
same,SODIUM,[3],140.87 MEQ/L
same,TOTAL BILIRUBIN,[3],0.27 mg/dL
same,TOTAL PROTEIN,[3],6.23 G/DL
same,URIC ACID,[3],1.5 mg/dL
